ChEMBL document CHEMBL4138123, “Design, synthesis and biological evaluation of novel pyrazolochalcones as potential modulators of PI3K/Akt/mTOR pathway and inducers of apoptosis in breast cancer cells” (Eur J Med Chem, 2017)

Legend:
OVCAR-5 = experiment: Cytotoxicity against human OVCAR5 cells assessed as cell growth at 100 uM after 48 hrs by sulforhodamine B assay relative to control; format: functional; details: OVCAR-5, 48 h, read-out: Activity
UACC-257 = experiment: Cytotoxicity against human UACC257 cells assessed as cell growth at 0.1 uM after 48 hrs by sulforhodamine B assay relative to control; format: functional; details: UACC-257, 48 h, read-out: Activity
SW-620 = experiment: Cytotoxicity against human SW620 cells assessed as cell growth at 1 uM after 48 hrs by sulforhodamine B assay relative to control; format: functional; details: SW-620, 48 h, read-out: Activity
T47D [1] = experiment: Cytotoxicity against human T47D cells assessed as cell growth at 0.1 uM after 48 hrs by sulforhodamine B assay relative to control; format: functional; details: read-out: Activity
SF-268 [2] = experiment: Cytotoxicity against human SF268 cells assessed as growth inhibition after 48 hrs by sulforhodamine B assay; format: functional; details: SF-268, 48 h; for CC50: read-out: LC50 (the source's name)
HL-60(TB) = experiment: Cytotoxicity against human HL-60(TB) cells assessed as cell growth at 0.01 uM after 48 hrs by sulforhodamine B assay relative to control; format: functional; details: HL-60, 48 h, read-out: Activity
A549 [3] = experiment: Cytotoxicity against human A549/ATCC cells assessed as cell growth at 1 uM after 48 hrs by sulforhodamine B assay relative to control; format: functional; details: A549, 48 h, read-out: Activity
COLO 205 [4] = experiment: Cytotoxicity against human COLO205 cells assessed as cell growth at 0.01 uM after 48 hrs by sulforhodamine B assay relative to control; format: functional; details: COLO 205, 48 h, read-out: Activity
KM12 = experiment: Cytotoxicity against human KM12 cells assessed as cell growth at 0.01 uM after 48 hrs by sulforhodamine B assay relative to control; format: functional; details: KM12, 48 h, read-out: Activity
MDA-MB-231 [5] = experiment: Cytotoxicity against human MDA-MB-231 cells assessed as growth inhibition after 48 hrs by MTT assay; format: functional, cell-based; details: MDA-MB-231, 48 h
OVCAR-4 [6] = experiment: Cytotoxicity against human OVCAR4 cells assessed as cell growth at 0.01 uM after 48 hrs by sulforhodamine B assay relative to control; format: functional; details: OVCAR-4, 48 h, read-out: Activity
SNB-19 = experiment: Cytotoxicity against human SNB19 cells assessed as cell growth at 100 uM after 48 hrs by sulforhodamine B assay relative to control; format: functional; details: SNB-19, 48 h, read-out: Activity
OVCAR-4 [7] = experiment: Cytotoxicity against human OVCAR4 cells assessed as cell growth at 1 uM after 48 hrs by sulforhodamine B assay relative to control; format: functional; details: OVCAR-4, 48 h, read-out: Activity
MDA-MB-231 [8] = experiment: Cytotoxicity against human MDA-MB-231 cells assessed as cell growth at 1 uM after 48 hrs by sulforhodamine B assay relative to control; format: functional; details: MDA-MB-231, 48 h, read-out: Activity
MDA-MB-468 [9] = experiment: Cytotoxicity against human MDA-MB-468 cells assessed as cell growth at 0.1 uM after 48 hrs by sulforhodamine B assay relative to control; format: functional; details: MDA-MB-468, 48 h, read-out: Activity
MDA-MB-468 [10] = experiment: Cytotoxicity against human MDA-MB-468 cells assessed as cell growth at 100 uM after 48 hrs by sulforhodamine B assay relative to control; format: functional; details: MDA-MB-468, 48 h, read-out: Activity
T47D [11] = experiment: Cytotoxicity against human T47D cells assessed as growth inhibition after 48 hrs by sulforhodamine B assay; format: functional
COLO 205 [12] = experiment: Cytotoxicity against human COLO205 cells assessed as cell growth at 1 uM after 48 hrs by sulforhodamine B assay relative to control; format: functional; details: COLO 205, 48 h, read-out: Activity
MDA-MB-231 [13] = experiment: Cytotoxicity against human MDA-MB-231 cells assessed as cell growth at 0.01 uM after 48 hrs by sulforhodamine B assay relative to control; format: functional; details: MDA-MB-231, 48 h, read-out: Activity
Malme-3M = experiment: Cytotoxicity against human MALME-3M cells assessed as cell growth at 100 uM after 48 hrs by sulforhodamine B assay relative to control; format: functional; details: read-out: Activity
OVCAR-3 = experiment: Cytotoxicity against human OVCAR3 cells assessed as cell growth at 100 uM after 48 hrs by sulforhodamine B assay relative to control; format: functional; details: OVCAR-3, 48 h, read-out: Activity
NCI-H460 [14] = experiment: Cytotoxicity against human NCI-H460 cells assessed as cell growth at 1 uM after 48 hrs by sulforhodamine B assay relative to control; format: functional; details: NCI-H460, 48 h, read-out: Activity
NCI-H460 [15] = experiment: Cytotoxicity against human NCI-H460 cells assessed as cell growth at 100 uM after 48 hrs by sulforhodamine B assay relative to control; format: functional; details: NCI-H460, 48 h, read-out: Activity
MDA-MB-231 [16] = experiment: Cytotoxicity against human MDA-MB-231 cells assessed as growth inhibition after 48 hrs by sulforhodamine B assay; format: functional; details: MDA-MB-231, 48 h
A549 [17] = experiment: Cytotoxicity against human A549/ATCC cells assessed as cell growth at 100 uM after 48 hrs by sulforhodamine B assay relative to control; format: functional; details: A549, 48 h, read-out: Activity
SK-OV-3 [18] = experiment: Cytotoxicity against human SKOV3 cells assessed as cell growth at 100 uM after 48 hrs by sulforhodamine B assay relative to control; format: functional; details: SK-OV-3, 48 h, read-out: Activity
RXF 393 = experiment: Cytotoxicity against human RXF393 cells assessed as cell growth at 100 uM after 48 hrs by sulforhodamine B assay relative to control; format: functional; details: RXF 393, 48 h, read-out: Activity
HCT-116 = experiment: Cytotoxicity against human HCT116 cells assessed as cell growth at 100 uM after 48 hrs by sulforhodamine B assay relative to control; format: functional; details: HCT-116, 48 h, read-out: Activity
SF-268 [19] = experiment: Cytotoxicity against human SF268 cells assessed as cell growth at 1 uM after 48 hrs by sulforhodamine B assay relative to control; format: functional; details: SF-268, 48 h, read-out: Activity
SF-539 = experiment: Cytotoxicity against human SF539 cells assessed as cell growth at 10 uM after 48 hrs by sulforhodamine B assay relative to control; format: functional; details: SF-539, 48 h, read-out: Activity
SK-OV-3 [20] = experiment: Cytotoxicity against human SKOV3 cells assessed as cell growth at 10 uM after 48 hrs by sulforhodamine B assay relative to control; format: functional; details: SK-OV-3, 48 h, read-out: Activity
HOP-62 = experiment: Cytotoxicity against human HOP62 cells assessed as cell growth at 0.1 uM after 48 hrs by sulforhodamine B assay relative to control; format: functional; details: HOP-62, 48 h, read-out: Activity
TK-10 = experiment: Cytotoxicity against human TK10 cells assessed as cell growth at 0.01 uM after 48 hrs by sulforhodamine B assay relative to control; format: functional; details: TK-10, 48 h, read-out: Activity
ACHN = experiment: Cytotoxicity against human ACHN cells assessed as cell growth at 1 uM after 48 hrs by sulforhodamine B assay relative to control; format: functional; details: read-out: Activity
MDA-MB-435 = experiment: Cytotoxicity against human MDA-MB-435 cells assessed as growth inhibition after 48 hrs by sulforhodamine B assay; format: functional; details: MDA-MB-435, 48 h
NCI-H23 = experiment: Cytotoxicity against human NCI-H23 cells assessed as cell growth at 0.01 uM after 48 hrs by sulforhodamine B assay relative to control; format: functional; details: NCI-H23, 48 h, read-out: Activity

Row | SMILES | growth at 100 µM (OVCAR-5) | growth at 0.1 µM (UACC-257) | growth at 1 µM (SW-620) | growth at 0.1 µM (T47D [1]) | TGI (SF-268 [2]) | CC50 (SF-268 [2]) | growth at 0.01 µM (HL-60(TB)) | growth at 1 µM (A549 [3]) | growth at 0.01 µM (COLO 205 [4]) | growth at 0.01 µM (KM12) | IC50 (MDA-MB-231 [5]) | growth at 0.01 µM (OVCAR-4 [6]) | growth at 100 µM (SNB-19) | growth at 1 µM (OVCAR-4 [7]) | growth at 1 µM (MDA-MB-231 [8]) | growth at 0.1 µM (MDA-MB-468 [9]) | growth at 100 µM (MDA-MB-468 [10]) | LC50 (T47D [11]) | TGI (T47D [11]) | growth at 1 µM (COLO 205 [12]) | other results
1 | COc1ccc(C(=O)/C=C/c2cc(-c3cc(OC)c(OC)c(OC)c3)n[nH]2)cc1OC | -71% | 89% | 70% | 98% | 3.96 µM | 8.59 µM | 103% | 84% | 107% | 97% | 620 nM | 95% | -95% | 70% | 77% | 89% | -87% | > 100 µM | 4.36 µM | 95% | growth at 0.01 µM (MDA-MB-231 [13]): 104%; growth at 100 µM (Malme-3M): -81%; growth at 100 µM (OVCAR-3): -84%; growth at 1 µM (NCI-H460 [14]): 70%; growth at 100 µM (NCI-H460 [15]): -65%; LC50 (MDA-MB-231 [16]): 6.32 µM; TGI (MDA-MB-231 [16]): 3.06 µM; growth at 100 µM (A549 [17]): -78%; growth at 100 µM (SK-OV-3 [18]): -98%; growth at 100 µM (RXF 393): -98%; growth at 100 µM (HCT-116): -13%; growth at 1 µM (SF-268 [19]): 89%; growth at 10 µM (SF-539): -94%; growth at 10 µM (SK-OV-3 [20]): -12%; growth at 0.1 µM (HOP-62): 100%; growth at 0.01 µM (TK-10): 85%; growth at 1 µM (ACHN): 91%; LC50 (MDA-MB-435): 5.52 µM; TGI (MDA-MB-435): 2.71 µM; growth at 0.01 µM (NCI-H23): 93%
2 | COc1ccc(C(=O)/C=C/c2cc(-c3cc(OC)c(OC)c(OC)c3)n[nH]2)cc1 | -59% | 97% | 82% | 93% | 5.12 µM | > 100 µM | 115% | 86% | 103% | 99% | 950 nM | 91% | -6% | 80% | 81% | 88% | -78% | > 100 µM | 13 µM | 94% | growth at 0.01 µM (MDA-MB-231 [13]): 104%; growth at 100 µM (Malme-3M): -2%; growth at 100 µM (OVCAR-3): -69%; growth at 1 µM (NCI-H460 [14]): 85%; growth at 100 µM (NCI-H460 [15]): -62%; LC50 (MDA-MB-231 [16]): > 100 µM; growth at 100 µM (A549 [17]): 1%; growth at 100 µM (SK-OV-3 [18]): -41%; growth at 100 µM (RXF 393): -93%; growth at 100 µM (HCT-116): -10%; growth at 1 µM (SF-268 [19]): 87%; growth at 10 µM (SF-539): -92%; growth at 10 µM (SK-OV-3 [20]): 18%; growth at 0.1 µM (HOP-62): 102%; growth at 0.01 µM (TK-10): 89%; growth at 1 µM (ACHN): 105%; LC50 (MDA-MB-435): > 100 µM; TGI (MDA-MB-435): 5.69 µM; growth at 0.01 µM (NCI-H23): 93%
3 | COc1cc(-c2cc(/C=C/C(=O)c3ccc(Cl)c(Cl)c3)[nH]n2)cc(OC)c1OC | 16% | 96% | 91% | 87% | 63.3 µM | > 100 µM | 105% | 93% | 103% | 96% | 2100 nM | 92% | 12% | 107% | 89% | 91% | -37% | > 100 µM | 15.7 µM | 54% | growth at 0.01 µM (MDA-MB-231 [13]): 103%; growth at 100 µM (Malme-3M): 24%; growth at 100 µM (OVCAR-3): -30%; growth at 1 µM (NCI-H460 [14]): 93%; growth at 100 µM (NCI-H460 [15]): -24%; LC50 (MDA-MB-231 [16]): > 100 µM; TGI (MDA-MB-231 [16]): > 100 µM; growth at 100 µM (A549 [17]): 2%; growth at 100 µM (SK-OV-3 [18]): -70%; growth at 100 µM (RXF 393): -71%; growth at 100 µM (HCT-116): -32%; growth at 1 µM (SF-268 [19]): 92%; growth at 10 µM (SF-539): 28%; growth at 10 µM (SK-OV-3 [20]): 26%; growth at 0.1 µM (HOP-62): 101%; growth at 0.01 µM (TK-10): 90%; growth at 1 µM (ACHN): 101%; LC50 (MDA-MB-435): > 100 µM; TGI (MDA-MB-435): > 100 µM; growth at 0.01 µM (NCI-H23): 95%
